PMC8298375 (Naunyn-Schmiedeberg's Archives of Pharmacology, 2021)
Counter-ions that a name gives are not always drawn.

What was measured:
cholinesterase enzyme = test system: cholinesterase enzyme; parameters: method as in Emerich and Walsh [1990]; settings: 2.5 mg/kg via the oral route; ref Emerich and Walsh [1990]; cited from earlier work
[1] = parameters: method as in Jann [2000]; settings: ref Jann [2000]; cited from earlier work
AChE = assay type: in vivo, rat; settings: scopolamine model, listed as pure drug
Procedure: Samples were then centrifuged at 10,000 rpm for 5 min, and plasma was stored at − 70 °C until analysis.
Thiocholine, which was produced due to the hydrolysis of acetylthiocholine (ACTI) by AChE, was estimated by making it react with 5, 5′-dithiobis-(2-nitrobenzoic acid) (DTNB). The chemical, 5-thio-2-nitrobenzoic acid (yellow color complex), which was released due to reaction was estimated using a UV spectrophotometer in the range of 400 to 420 nm with maximal absorption at 412 nm. One hundred microliter of blank rat plasma was taken in the polypropylene vials. To this, 2.8 mL of phosphate buffer (0.01 M, pH 8) and 100 µL of DTNB reagents were added and mixed well. Then, 20 µL of ACTI (26.01 mg/mL of Milli-Q water) was added to the contents of the cuvette to initiate the enzyme reaction. The reaction kinetics was monitored at different time intervals (0, 1, 2, 3, 4 min), and absorbance was noted. 2.8 mL buffer (0.01 M, pH 8.0) and 100 µL DTNB reagent served as blank. Concentrations in the range of 0.03–30 mM were prepared using methanol as a diluent. […] Substrate concentration and reaction time were optimized such that sufficient concentration of ACTI is available to bind with the enzyme to initiate the reaction and also it should not saturate the enzyme. In this study, varying concentrations (100–1000 µM) of ACTI were prepared, and reaction kinetics were observed. In general, the maximum time should be either 2–4 min or even less, because the enzyme might undergo degradation. In the present study, up to 4 min of reaction kinetics (changing the optical density or absorbance) was measured. One unit of AChE activity is defined as the number of µmol of acetylthiocholine iodide hydrolyzed per minute. The specific activity of AChE is expressed in moles/min/mg of protein (Kaur et al. [2015]): AChEActivity=(abs.permin×1000×volumeofenzyme)/(13600×TRM)AChEActivity=abovevalue×1000(nanomolar/min/mL)
where 13,600 = molar extinction coefficient of DTNB: 1000-molar conversion factor: (TRM) total reaction mixture 3 mL: volume of enzyme (0.1 mL).

[2] = parameters: method as in Arumugam [2009]; settings: male vs female rats; ref Arumugam [2009]; cited from earlier work
[3] = parameters: method as in Jann [2000]; settings: ref Jann [2000], cited from earlier work
[4] = In vitro release studies, release kinetics and mechanism (dialysis sac); assay type: physicochemical; settings: PBS pH 7.4, dialysis sac
Procedure: In vitro release studies were performed using dialysis sac (Sigma membrane, MW cut-off 13 kDa) method. Two milligram equivalent of rivastigmine-loaded nanoparticles were weighed and suspended in 2 mL of phosphate buffer saline (pH 7.4). Samples were withdrawn at predetermined time intervals and analyzed by HPLC method. In order to maintain sink conditions, an equal volume of PBS was replaced. The whole experiment was performed at […]. Based on the cumulative drug release vs. time profiles, the release kinetics models and mechanism were proposed (Akbuǧa and Bergişadi [1997]).

For CCN(C)C(=O)Oc1cccc([C@H](C)N(C)C)c1 [Rivastigmine, Rivastigmine hydrogen tartrate], the “inhibition of the cholinesterase enzyme in the cortex and hippocampus” value (cholinesterase enzyme) is listed as 20–30%, the “log P predicted” value [1] is listed as 2.45 and the “peak AChE inhibition (Emax, maximum inhibition) in plasma” value (AChE) is listed as 71.95%. The “elimination rate constant, male rats versus female rats” value [2] was 2.5 fold, the bioavailability ([3]; oral) was 36–40% and the plasma elimination half-life [3] was 1.5 h. The “drug released within 2 h” value [4] was 85%.
